Reference: ChEMBL document CHEMBL1130727, “Benzothiopyran-4-one based reversible inhibitors of the human cytomegalovirus (HCMV) protease” (Bioorg Med Chem Lett, 1998)

target: T1, Capsid scaffolding protein (Human cytomegalovirus (strain AD169) (HHV-5) (Human herpesvirus 5), UniProt P16753); experiment: Inhibitory activity against human cytomegalovirus (HCMV) protease was evaluated; parameters: species or system Human betaherpesvirus 5
T1 sequence (P16753 whole entry): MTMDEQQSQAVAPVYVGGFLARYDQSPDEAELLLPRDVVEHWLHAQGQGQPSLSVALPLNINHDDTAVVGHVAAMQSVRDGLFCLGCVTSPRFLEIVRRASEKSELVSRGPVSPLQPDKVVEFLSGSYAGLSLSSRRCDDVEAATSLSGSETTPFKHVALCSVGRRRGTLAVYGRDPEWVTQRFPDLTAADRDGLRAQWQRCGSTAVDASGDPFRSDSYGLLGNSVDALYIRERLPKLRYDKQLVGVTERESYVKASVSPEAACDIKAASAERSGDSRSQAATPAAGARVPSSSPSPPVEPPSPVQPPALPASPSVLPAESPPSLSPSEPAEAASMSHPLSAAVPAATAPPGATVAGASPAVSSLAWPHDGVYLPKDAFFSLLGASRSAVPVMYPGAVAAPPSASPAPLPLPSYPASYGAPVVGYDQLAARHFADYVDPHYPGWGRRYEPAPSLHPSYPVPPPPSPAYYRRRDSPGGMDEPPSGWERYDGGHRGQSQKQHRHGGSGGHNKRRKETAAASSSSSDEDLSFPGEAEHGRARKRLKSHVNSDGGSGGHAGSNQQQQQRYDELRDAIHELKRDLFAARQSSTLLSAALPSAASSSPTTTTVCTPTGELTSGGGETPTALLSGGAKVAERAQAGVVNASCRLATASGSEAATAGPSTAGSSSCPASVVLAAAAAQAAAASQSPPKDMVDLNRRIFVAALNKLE

Row | Structure (SMILES) | IC50
1 | CCOC(=O)c1ccc2c(c1)C(=O)C=C(c1ccc([N+](=O)[O-])cc1)S2(=O)=O | 180 nM
2 | CS(=O)(=O)c1ccc(C2=CC(=O)c3ccccc3S2(=O)=O)cc1 | 100 nM
3 | O=C1C=C(c2ccc(-c3ccccc3)cc2)S(=O)(=O)c2ccccc21 | 60 nM
4 | CCCCCCCC1=CC(=O)c2ccccc2S1(=O)=O | 1400 nM
5 | O=c1cc(-c2ccccc2)[s+]([O-])c2ccccc12 (stereo not given) | 10000 nM
6 | Cc1cccc2c1C(=O)C=C(c1ccc([N+](=O)[O-])cc1)S2(=O)=O | 100 nM
7 | O=C1C=C(c2cccs2)S(=O)(=O)c2ccccc21 | 460 nM
8 | O=C1C=C(c2ccccc2)S(=O)(=O)c2ccccc21 | 1500 nM
9 | Cc1cccc2c1S(=O)(=O)C(c1ccc([N+](=O)[O-])cc1)=CC2=O | 110 nM
10 | CS(=O)(=O)c1ccc(-c2cc(=O)c3ccccc3s2)cc1 | > 34000 nM
11 | O=c1cc(-c2ccccc2)sc2ccccc12 | > 34000 nM
12 | O=C1C=C(c2ccsc2)S(=O)(=O)c2ccccc21 | > 34000 nM
13 | CC(C)c1cccc2c1S(=O)(=O)C(c1ccc([N+](=O)[O-])cc1)=CC2=O | 180 nM
14 | O=C1C=C(c2cc[n+]([O-])cc2)S(=O)(=O)c2ccccc21 | 600 nM
15 | O=C1C=C(c2ccncc2)S(=O)(=O)c2ccccc21 | 100 nM
16 | CC(C)(C)C1=CC(=O)c2ccccc2S1(=O)=O | > 34000 nM
17 | O=C1C=C(c2cccnc2)S(=O)(=O)c2ccccc21 | 200 nM
18 | O=c1cc(-c2cccnc2)sc2ccccc12 | > 34000 nM
19 | O=C1C=C(c2ccc([N+](=O)[O-])cc2)S(=O)(=O)c2ccccc21 | 60 nM
20 | O=C1C=C(c2ccc[n+]([O-])c2)S(=O)(=O)c2ccccc21 | 600 nM
